In BindingDB's records for PubMed 6292197 (Kyoto University, 1982) one finds Ki data, which are given here for eleven compounds.

In the assay the target is T1, Prostaglandin D2 receptor (Rattus norvegicus, UniProt Q9R261).
T1 sequence (Q9R261 whole entry): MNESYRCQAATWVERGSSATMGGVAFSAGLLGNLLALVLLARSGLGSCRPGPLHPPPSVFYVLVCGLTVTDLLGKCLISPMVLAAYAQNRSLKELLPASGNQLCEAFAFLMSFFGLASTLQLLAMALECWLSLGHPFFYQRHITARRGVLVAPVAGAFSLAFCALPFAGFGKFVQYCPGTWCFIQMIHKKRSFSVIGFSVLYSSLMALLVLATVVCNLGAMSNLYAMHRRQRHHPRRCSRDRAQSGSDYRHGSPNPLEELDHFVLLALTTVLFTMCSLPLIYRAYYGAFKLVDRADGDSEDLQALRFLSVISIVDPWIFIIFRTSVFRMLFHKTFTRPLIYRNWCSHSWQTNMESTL
`CCCCC[C@@H](O)/C=C/[C@H]1[C@H](O)CC(=O)[C@@H]1CCCCCCC(=O)O`: the Ki is 3.76 µM.
`CCCCC[C@H](O)/C=C/[C@@H]1[C@@H](CC(=O)CCCCC(=O)O)[C@@H](O)C[C@H]1O` [6-KETO-PROSTAGLANDIN F1ALPHA] came in with a Ki greater than 10 µM.
The compound `CCCCC[C@H](O)/C=C/C1[C@H](O)C[C@H](O)[C@@H]1C/C=C\CCCC(=O)O` (stereo partly drawn) [(Z)-7-[(1R,3R,5S)-3,5-Dihydroxy-2-((E)-(S)-3-hydroxy-oct-1-enyl)-cyclopentyl]-hept-5-enoic acid] had a Ki of 0.693 µM.
In the case of `CCCCC[C@H](O)C=C[C@H]1C=CC(=O)[C@@H]1C/C=C\CCCC(=O)O` [(Z)-7-[(1R,5S)-2-oxidanylidene-5-[(E,3S)-3-oxidanyloct-1-enyl]cyclopent-3-en-1-yl]hept-5-enoic acid] it was greater than 10 µM; in that of `CCCCCC(O)CC=C1C(=O)C=CC1CC=CCCCC(=O)O` (stereo unspecified) [CAS_41598-07-6], 0.019 µM; in that of `CCCCCC(O)C=CC1C(=O)CC(O)C1CC=CCCCC(=O)OC` (stereo unspecified) [CAS_114676], 0.027 µM.
In the case of `CCCCC[C@H](O)/C=C/[C@H]1[C@H](O)CC(=O)[C@@H]1C/C=C\CCCC(=O)O` [DINOPROSTONE] it was 2.95 µM; in that of `CCCCCC(O)C=CC1C(=O)CC(O)C1CCCCCCC(=O)O` (stereo unspecified) [NSC_205449], 0.523 µM.
The same measure for `CCCCCC(O)C=CC1=C(CC=CCCCC(=O)O)C(=O)CC1` (stereo unspecified) [NSC_5280881]: greater than 10 µM.
`CCCCCC(O)C=CC1C(O)CC2OC(=CCCCC(=O)O)CC21` (stereo unspecified) [NSC_5282411] registered a Ki of 3.54 µM.
The same measure for `CCCCC[C@H](O)/C=C/[C@H]1OC(O)C[C@H](O)[C@@H]1C/C=C\CCCC(=O)O` (stereo partly specified) [THROMBOXANE B2]: 4.2 µM.

In general, Ki refers to the dissociation constant of the complex between target and ligand, obtained from inhibition or displacement.
